We go through two compounds from publication PMC7956476, “Quinoline Functionalized Schiff Base Silver (I) Complexes: Interactions with Biomolecules and In Vitro Cytotoxicity, Antioxidant and Antimicrobial Activities” (Molecules, 2021).

SMILES strings stand for the structures.

The test system of assay [1] is CT-DNA-EB adduct. In words: Fluorescence competitive displacement of ethidium bromide from CT-DNA. It is filed as binding, calf. The note with it: for CT-DNA-EB-Complex Ksv (M^−1) × 10^4: Stern–Volmer quenching constant, EB displacement, 25 °C; for CT-DNA-EB-Complex Kq (M^−1S^−1) × 10^12: bimolecular quenching constant, Ksv = Kqτo, τo 10^−8 s; for CT-DNA-EB-Complex Kbin (M^−1) × 10^5: binding constant from double-logarithmic plot. In a few lines: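 CT-DNA (15 µM) was pre-equilibrated 30 min with ethidium bromide (15 µM) in phosphate buffer pH 7.2, then titrated with complexes (0–20 µM) at 8-min intervals at room temperature. EB emission was recorded at 530–700 nm (excitation 525 nm, 25 °C), and quenching was analysed by Stern–Volmer to give Ksv and Kq (τo taken as 10^−8 s).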

Assay [2] has as its system breast cancer cell line (MDA-MB231). In words: Cytotoxicity assay (CellTiter 96 AQueous One Solution, 72 h). Type of assay: cell-based, human. The conditions noted are these: EC50 in HEK293 over EC50 in MDA-MB231. On the procedure: (§1) In vitro cell viability with cultured cells is a method commonly used for cytotoxicity activities of potential anticancer compounds due to reduced cost speed, and potential for automation, and tests using human cells other than some in vivo animal tests. […] The cytotoxicity assay was conducted as per the standard method and as described by Abrahams et al. 2018 [111]. […] The plate was then incubated for 72 h at 37 °C and 5% CO2. To each well, 20 µL CellTiter 96 AQueous One Solution (Promega, Madison, WI, USA) was added and the plates were incubated for 4 h as previously described. Thereafter, absorbance was read at 490 nm on a multiplate reader (Molecular Devices, San Jose, CA, USA). […] The values recorded are averages of at least three separate experiments (n = 3).

Assay [3] relates to neuronal cancer cell line (SHSY5Y). Described as above. The conditions noted are these: EC50 in HEK293 over EC50 in SHSY5Y. It is filed as cell-based, human. As to the method: as §1
The test system of assay [4] is cervical cancer cell line (HELA). Described as above. It is filed as cell-based, human. The conditions noted are these: EC50 in HEK293 over EC50 in HELA. On the procedure:
as §1

Assay [5] relates to Pseudomonas aeruginosa ATCC 27853. In words: Minimum inhibitory concentration (MIC), spotting on Müeller–Hinton agar. It is filed as cell-based. The note with it: Gram − Ve; P. aeruginosa; 37 °C, 18 h.

`[Ag+].[O-][Cl+3]([O-])([O-])[O-].c1ccc2nc(-c3nc4ccccc4s3)ccc2c1.c1ccc2nc(-c3nc4ccccc4s3)ccc2c1` [Complex Q7, [Ag(L2)2]ClO4]: in assay [1], the “CT-DNA-EB-Complex Ksv (M^−1) × 10^4” value is 3.96 (M^−1) × 10^4, the “CT-DNA-EB-Complex Kq (M^−1S^−1) × 10^12” value was 3.96 (M^−1S^−1) × 10^12 and the “CT-DNA-EB-Complex Kbin (M^−1) × 10^5” value was 1.29 (M^−1) × 10^5. The “Selectivity Index (SI) MDA-MB231” value in assay [2] worked out at 2.40. In addition, the “Selectivity Index (SI) SHSY5Y” value in assay [3] is recorded as 3.30. In addition, the “Selectivity Index (SI) HELA” value in assay [4] turned out to be 4.39. Also, in assay [5], the “Minimum inhibitory concentration, PA” value was 0.2 µg/mL.
In the case of `Cc1ccc(N=Cc2ccc3ccccc3n2)cc1.Cc1ccc(N=Cc2ccc3ccccc3n2)cc1.[Ag+].[O-][Cl+3]([O-])([O-])[O-]` [Complex Q9, [Ag(L4)2]ClO4], in assay [1], the “CT-DNA-EB-Complex Ksv (M^−1) × 10^4” value is given as 2.49 (M^−1) × 10^4, the “CT-DNA-EB-Complex Kq (M^−1S^−1) × 10^12” value was 2.49 (M^−1S^−1) × 10^12 and the “CT-DNA-EB-Complex Kbin (M^−1) × 10^5” value is reported as 6.53 (M^−1) × 10^5. Also, the “Selectivity Index (SI) MDA-MB231” value in assay [2] is recorded as 2.57. For the same compound, the “Selectivity Index (SI) SHSY5Y” value in assay [3] was 2.12. In addition, in assay [4], the “Selectivity Index (SI) HELA” value was found to be 4.48.
